Test results taken from ChEMBL document CHEMBL4387711, “Discovery of niclosamide and its O-alkylamino-tethered derivatives as potent antibacterial agents against carbapenemase-producing and/or colistin resistant Enterobacteriaceae isolates” (2019).
Converted amounts (≈) assume the structure as drawn. The source made the active and inactive calls. The calls are words filed in the database; no cut-off is given here.

Tests used:
[1] = tested on: Klebsiella pneumoniae; test: Bactericidal activity against OXA-48/CTX-M-15/carbapenemase-producing Klebsiella pneumoniae 28 assessed as reduction in bacterial count at MIC measured from 2 hrs in presence of colistin by time kill assay; format: functional, organism-based
[2] = tested on: Klebsiella aerogenes; test: Antibacterial activity against colistin-resistant Enterobacter aerogenes 3 assessed as inhibition of growth at 50 uM after 18 hrs; format: functional, organism-based
[3] = tested on: Escherichia coli; test: Synergistic antibacterial activity against colistin-susceptible NDM1/KPC-producing Escherichia coli in presence of colistin by checkerboard assay; format: functional
[4] = tested on: Escherichia coli; test: Antibacterial activity against colistin-susceptible NDM1/KPC-producing Escherichia coli by broth microdilution method; format: functional
[5] = tested on: Klebsiella pneumoniae; test: Antibacterial activity against colistin-susceptible OXA-48/CTX-M-15/carbapenemase-producing Klebsiella pneumoniae 28 assessed as inhibition of growth at 50 uM after 18 hrs; format: functional, organism-based
[6] = tested on: Klebsiella pneumoniae; test: Antibacterial activity against colistin-resistant OXA-48/CTX-M-15/carbapenemase-producing Klebsiella pneumoniae 29 assessed as inhibition of growth at 50 uM after 18 hrs; format: functional, organism-based
[7] = tested on: Enterobacter cloacae; test: Antibacterial activity against colistin-resistant Enterobacter cloacae 142 assessed as inhibition of growth at 50 uM after 18 hrs; format: functional, organism-based
[8] = tested on: Klebsiella pneumoniae; test: Antibacterial activity against Klebsiella pneumoniae CECT-997 assessed as inhibition of growth at 50 uM after 18 hrs; format: functional, organism-based
[9] = tested on: Enterobacter cloacae; test: Antibacterial activity against colistin-resistant Enterobacter cloacae 297 by broth microdilution method; format: functional
[10] = tested on: Klebsiella pneumoniae; test: Antibacterial activity against colistin-susceptible VIM1/carbapenemase-producing Klebsiella pneumoniae 07 assessed as inhibition of growth at 50 uM after 18 hrs; format: functional, organism-based
[11] = tested on: Enterobacter cloacae; test: Antibacterial activity against colistin-resistant Enterobacter cloacae 280 by broth microdilution method; format: functional
[12] = tested on: Enterobacter cloacae; test: Antibacterial activity against colistin-resistant Enterobacter cloacae 280 assessed as inhibition of growth at 50 uM after 18 hrs; format: functional, organism-based
[13] = tested on: Escherichia coli; test: Antibacterial activity against colistin-susceptible NDM1/KPC-producing Escherichia coli assessed as inhibition of growth at 50 uM after 18 hrs; format: functional, organism-based
[14] = tested on: Enterobacter cloacae; test: Antibacterial activity against colistin-resistant Enterobacter cloacae 263 assessed as inhibition of growth at 50 uM after 18 hrs; format: functional, organism-based
[15] = tested on: Klebsiella pneumoniae; test: Antibacterial activity against colistin-resistant VIM1/DHAI/carbapenemase-producing Klebsiella pneumoniae 21 assessed as inhibition of growth at 50 uM after 18 hrs; format: functional, organism-based
[16] = tested on: Enterobacter cloacae; test: Antibacterial activity against colistin-resistant Enterobacter cloacae 190 assessed as inhibition of growth at 50 uM after 18 hrs; format: functional, organism-based
[17] = tested on: Klebsiella pneumoniae; test: Antibacterial activity against colistin-susceptible OXA-48/CTX-M-15/carbapenemase-producing Klebsiella pneumoniae 28 by broth microdilution method; format: functional
[18] = tested on: Klebsiella pneumoniae; test: Synergistic bactericidal activity against OXA-48/CTX-M-15/carbapenemase-producing Klebsiella pneumoniae 28 assessed as reduction in bacterial count at MIC measured after 2 hrs in presence of colistin by time kill assay; format: functional, organism-based
[19] = tested on: Enterobacter cloacae; test: Antibacterial activity against colistin-resistant Enterobacter cloacae 32 assessed as inhibition of growth at 50 uM after 18 hrs; format: functional, organism-based
[20] = tested on: Klebsiella aerogenes; test: Antibacterial activity against colistin-resistant Enterobacter aerogenes 53 assessed as inhibition of growth at 50 uM after 18 hrs; format: functional, organism-based
[21] = tested on: Klebsiella pneumoniae; test: Antibacterial activity against colistin-susceptible NDM-1/carbapenemase-producing Klebsiella pneumoniae assessed as inhibition of growth at 50 uM after 18 hrs; format: functional, organism-based
[22] = tested on: Klebsiella pneumoniae; test: Antibacterial activity against colistin-susceptible NDM-1/carbapenemase-producing Klebsiella pneumoniae by broth microdilution method; format: functional
[23] = tested on: Enterobacter cloacae; test: Antibacterial activity against colistin-resistant Enterobacter cloacae 272 assessed as inhibition of growth at 50 uM after 18 hrs; format: functional, organism-based
[24] = tested on: Klebsiella pneumoniae; test: Antibacterial activity against carbapenemase/Klebsiella pneumoniae CECT-997 by broth microdilution method; format: functional
[25] = tested on: Enterobacter cloacae; test: Antibacterial activity against colistin-resistant Enterobacter cloacae 297 assessed as inhibition of growth at 50 uM after 18 hrs; format: functional, organism-based
[26] = tested on: Enterobacter cloacae; test: Antibacterial activity against colistin-resistant Enterobacter cloacae 263 by broth microdilution method; format: functional, organism-based
[27] = tested on: Klebsiella pneumoniae; test: Antibacterial activity against colistin-resistant VIM1/DHAI/carbapenemase-producing Klebsiella pneumoniae 21 by broth microdilution method; format: functional, organism-based
[28] = tested on: Escherichia coli; test: Bactericidal activity against colistin-susceptible NDM-1/KPC-producing Escherichia coli assessed as reduction in bacterial count at MIC measured after 2 hrs by time kill assay; format: functional, organism-based
[29] = tested on: Klebsiella pneumoniae; test: Antibacterial activity against colistin-susceptible VIM1/carbapenemase-producing Klebsiella pneumoniae 07 by broth microdilution method; format: functional, organism-based
[30] = tested on: Enterobacter cloacae; test: Antibacterial activity against colistin-resistant Enterobacter cloacae 272 by broth microdilution method; format: functional, organism-based
[31] = tested on: Enterobacter cloacae; test: Antibacterial activity against colistin-resistant Enterobacter cloacae 190 by broth microdilution method; format: functional, organism-based
[32] = tested on: Enterobacter cloacae; test: Antibacterial activity against colistin-resistant Enterobacter cloacae 32 by broth microdilution method; format: functional, organism-based
[33] = tested on: Klebsiella pneumoniae; test: Antibacterial activity against colistin-resistant OXA-48/CTX-M-15/carbapenemase-producing Klebsiella pneumoniae 29 by broth microdilution method; format: functional, organism-based
[34] = tested on: Klebsiella aerogenes; test: Antibacterial activity against colistin-resistant Enterobacter aerogenes 3 by broth microdilution method; format: functional, organism-based
[35] = tested on: Klebsiella aerogenes; test: Antibacterial activity against colistin-resistant Enterobacter aerogenes 53 by broth microdilution method; format: functional, organism-based
[36] = tested on: Enterobacter cloacae; test: Antibacterial activity against colistin-resistant Enterobacter cloacae 142 by broth microdilution method; format: functional, organism-based
[37] = tested on: Enterobacter cloacae; test: Synergistic antibacterial activity against colistin-resistant Enterobacter cloacae 297 in presence of colistin by checkerboard assay; format: functional
[38] = tested on: Enterobacter cloacae; test: Synergistic bactericidal activity against colistin-resistant Enterobacter cloacae 280 assessed as reduction in bacterial count at MIC measured after 8 hrs in presence of colistin by time kill assay; format: functional, organism-based
[39] = tested on: Enterobacter cloacae; test: Synergistic antibacterial activity against colistin-resistant Enterobacter cloacae 280 in presence of colistin by checkerboard assay; format: functional
[40] = tested on: Enterobacter cloacae; test: Bactericidal activity against colistin-resistant Enterobacter cloacae 280 assessed as reduction in bacterial count at MIC measured after 2 hrs in presence of colistin by time kill assay; format: functional, organism-based
[41] = tested on: Escherichia coli; test: Bactericidal activity against colistin-susceptible NDM-1/KPC-producing Escherichia coli assessed as reduction in bacterial count at MIC measured after 2 hrs in presence of colistin by time kill assay; format: functional, organism-based
[42] = tested on: Klebsiella pneumoniae; test: Synergistic bactericidal activity against OXA-48/CTX-M-15/carbapenemase-producing Klebsiella pneumoniae 28 assessed as reduction in bacterial count at MIC measured after 8 hrs in presence of colistin by time kill assay; format: functional, organism-based
[43] = tested on: Klebsiella pneumoniae; test: Bactericidal activity against OXA-48/CTX-M-15/carbapenemase-producing Klebsiella pneumoniae 28 assessed as reduction in bacterial count at MIC measured from 4 to 8 hrs in presence of colistin by time kill assay; format: functional, organism-based
[44] = tested on: Klebsiella pneumoniae; test: Synergistic antibacterial activity against colistin-susceptible NDM-1/carbapenemase-producing Klebsiella pneumoniae in presence of colistin by checkerboard assay; format: functional

Compound	growth inhibition (GI) [2]	MIC [4]	growth inhibition (GI) [5]	growth inhibition (GI) [6]	growth inhibition (GI) [7]	growth inhibition (GI) [8]	MIC [9]	growth inhibition (GI) [10]	MIC [11]	growth inhibition (GI) [12]	growth inhibition (GI) [13]	growth inhibition (GI) [14]	growth inhibition (GI) [15]	growth inhibition (GI) [16]	MIC [17]	growth inhibition (GI) [19]	growth inhibition (GI) [20]	growth inhibition (GI) [21]	MIC [22]	growth inhibition (GI) [23]	other results
NCCCCCOc1ccc(Cl)cc1C(=O)Nc1ccc([N+](=O)[O-])cc1Cl	inactive	> 15 µg/mL	Active	inactive	inactive	inactive	inactive	inactive	inactive	inactive	Active	inactive	inactive	inactive	15 µg/mL (≈ 36.4 µM)	inactive	inactive	Active	> 15 µg/mL	inactive	Activity [1]: Active; fractional inhibitory concentration index (FICI) [3]: 0.38; Activity [18]: Active; MIC [24]: inactive; growth inhibition (GI) [25]: inactive
COLISTIN		0.5 µg/mL					3 µg/mL		32 µg/mL						0.5 µg/mL				0.5 µg/mL		MIC [26]: 8 µg/mL; MIC [27]: 64 µg/mL; Activity [28]: Active; MIC [29]: 0.5 µg/mL; MIC [30]: 16 µg/mL; MIC [31]: 32 µg/mL; MIC [32]: > 256 µg/mL; MIC [33]: 32 µg/mL; MIC [34]: 32 µg/mL; MIC [35]: 32 µg/mL; MIC [36]: 64 µg/mL
O=C(Nc1ccc([N+](=O)[O-])cc1Cl)c1cc(Cl)ccc1O [NICLOSAMIDE]	inactive	inactive	inactive	inactive	inactive	inactive	> 15 µg/mL	inactive	> 15 µg/mL	Active	inactive	inactive	inactive	inactive	inactive	inactive	inactive	inactive	inactive	inactive	fractional inhibitory concentration index (FICI) [37]: 0.25; Activity [38]: Active; fractional inhibitory concentration index (FICI) [39]: 0.25; Activity [40]: Active; MIC [24]: inactive; growth inhibition (GI) [25]: Active
NCCCCOc1ccc(Cl)cc1C(=O)Nc1ccc([N+](=O)[O-])cc1Cl	inactive	15 µg/mL (≈ 37.7 µM)	Active	inactive	inactive	Active	> 15 µg/mL	inactive	> 15 µg/mL	Active	Active	inactive	inactive	inactive	15 µg/mL (≈ 37.7 µM)	inactive	inactive	Active	> 15 µg/mL	inactive	fractional inhibitory concentration index (FICI) [3]: 0.25; Activity [28]: Active; Activity [41]: Active; Activity [42]: Active; Activity [43]: Active; fractional inhibitory concentration index (FICI) [44]: 0.5; MIC [24]: 15 µg/mL (≈ 37.7 µM); growth inhibition (GI) [25]: Active
